# Patent US9090659B2, “RHAMM binding peptides” (London Health Sciences Centre Research Inc., priority 2010, dated 2015)
# pKd: −log10 of the molar value. Ends that are not written are not given here. Peptide text beside a SMILES is read from it.
# What was measured:
# RHAMM [1] = biological target: T1, RHAMM (Mus musculus, UniProt Q00547); assay: SPR binding assay for kinetic constants, RHAMM flowed over immobilized peptides (GWC SPRimager II); details: peptide immobilized on sensor plate; RHAMM 500, 750, 1000 nM; 1:1 Langmuir binding model
# T1 construct: Profinity eXact tag; made in house; host or cells: E. coli BL21 (D3), plasmid pPAL7-RHAMM
# T1 sequence (Q00547 706-766): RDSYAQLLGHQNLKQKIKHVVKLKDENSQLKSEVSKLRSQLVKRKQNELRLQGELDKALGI
# Protocol: After peptide screening, […] system was used to determine binding kinetic constants. Thiol-containing peptides at 1 nM concentration in milliQ water were immobilized on a maleimide-functionalized gold-plated chip for 3 hours. Excess peptides were removed by washing with milliQ water. For binding studies, a series of concentrations (500 nM, 750 nM, and 1000 nM) of RHAMM were injected over the immobilized peptides. After a 15 min dissociation phase, the sensor chip surface was regenerated for the next peptide sample injection, via treatment with two 10 min pulse injections of regenerating buffer (2 M NaCl in HBS-EP, pH 7.4) at […]. Baseline returned to the initial value after the regeneration step, confirming the removal of all bound analytes. Data were analyzed and the corresponding dissociation constants (KD) were obtained via non-linear regression fitting to a Langmuir binding model. In all experiments, reference subtraction was performed using data obtained from reference plate (no peptide) and peptide functionalized plate. The binding of the six peptides deduced in the previous section to RHAMM was quantified. Truncation studies indicate that the CTTs (i.e. the last 12 carboxy-terminal residues of S-peptides), were sufficient to induce MAP-directed microtubule assembly, thus placing a label spaced by a linker moiety on the amino terminus of CTT should not affect the peptide-protein interaction. Peptides were immobilized on the sensor plate and RHAMM was flowed over derivatized surface at different concentrations at a constant flow rate of 100 μL/min. FIG. 4 A depicts the resulting sensograms. Again, each sensograms has been corrected by subtracting each curve from a reference sensorgram (data acquired from the sensorgram without immobilized peptide) in order to account for refractive index differences between running buffer and sample solutions. Experimental sensograms were fitted with curves resulting from a kinetic model for a 1:1 Langmuir binding model. […]
# RHAMM [2] = biological target: T1, RHAMM; assay: SPR-based screening of tubulin-derived peptides against immobilized RHAMM (ProteON XPR36); assay type: binding; details: peptides 10 μM injected over immobilized RHAMM
# Protocol: ProteON XPR36 system was used for the selection and ranking of different tubulin derived peptides against RHAMM. For immobilization of RHAMM, the ProteON GLC sensor chip surfaces were activated by amine coupling using 100 mM EDAC and 24 mM sulfo-NHS. RHAMM (30 μg/mL in sodium bicarbonate buffer, pH 9.7) was injected at a flow a rate of 30 μl/min. A buffer sample was injected on a different sensor plate for use as a reference. Ethanolamine HCl (1M, pH 8.5) was then injected to deactivate any remaining surface groups. Peptides (10 μM in PBS-T, 2% DMSO) were injected to a RHAMM functionalized surface at 50 μL/min for 3 minutes followed by a 10 minute dissociation (i.e. injection of PBS-T buffer) period. The surfaces were regenerated using two injections of 30 μL of 1M NaCl prior to the injection of the next peptide. In all experiments, reference subtraction was performed using data obtained from reference plate (No RHAMM) and RHAMM functionalized plate.
# A SPR (surface plasmon resonance)-based screening method was utilized for rapid and accurate determination of potential peptide candidates that are able to recognize the HA-binding domain of RHAMM. Seventeen tubulin-derived peptides were screened, and the resulting sensograms were used to deduce peptides which show affinity to RHAMM. Prior to screening, the optimal condition for ligand immobilization, in this instance RHAMM, to the sensor plate was determined. The optimal pH for the immobilization buffer balances the electrostatic attraction of the protein to the sensor plate while minimizing protein deactivation. In this study the optimal pH for immobilization was determined to be the pH that yielded the highest ligand density. RHAMM was coupled to the sensor plate using sodium bicarbonate buffer of varying pH, at a flow rate of 30 μL/min and with fixed concentration of EDAC and sulfo-NHS. The RHAMM ligand density for each pH immobilization condition was determined from the average SPR response of six measurements and the maximum ligand immobilization occurred at pH 9.7 (FIG. 3 A). Ligand immobilization was slightly lower than pH 10.1 due in part to loss of net charge on RHAMM at its isoelectric point.
# After immobilization of RHAMM on the SPR sensor chip, injection of a series of tubulin derived peptides was carried out. Association of the peptides with RHAMM proceeded for 3 minutes and the dissociation in analyte free buffer was carried out for 10 minutes. […] For each peptide injection, control sensograms (no immobilized RHAMM and buffer injection) were subtracted from the test sensograms, and the chip surface was regenerated prior to the next peptide injection in order to remove any remaining bound peptides.
# RHAMM [3] = biological target: T2, RHAMM (Mus musculus, UniProt Q00547); assay: KD (nM)
# T2 construct: Profinity eXact tag; made in house; host or cells: E. coli BL21 (D3), plasmid pPAL7-RHAMM
# From the text: Table printed on a drawing sheet, FIG. 2 B
# Head of the field: KD (nM)
# The patent's description of the figure: FIG. 2 A illustrate the general structure of (a) unmodified tubulin-derived peptides, (b) tubulin-derived peptides conjugated to N-acetyl cysteine, and (c) tubulin-derived peptides conjugated to fluorescein isothiocyanate.
# FIG. 2 B is a table of 17 synthesized tubulin-derived peptides, including peptides derivatized with fluorescein or N-acetyl cysteine, tubulin fragment type, calculated and observed mass spectrometry m/z values (m is representative of molecular or atomic mass and z is representative of the number of elementary charges carried by the ion), percent purity and binding constant Kd. FIG. 2 B discloses SEQ ID NOs: 1, 24-25, 2-3, 26-27, 4-9, 28-29, 10-11, 30-31, 12, 32-33, 13-14, 34-35 and 15-17, respectively, in order of appearance.
# FIG. 2 B is a table which describes all 17 peptides prepared for this study. Sequences of 17 synthesized peptides encompass the CTTs of different tubulin subtypes as well as sequences directly flanking α1a- (SEQ ID NOs: 6, 7 and 8) and βIIIa-CTT (SEQ ID NOs: 13 and 14). […]
# First copying reader's note: The table is continued on the next sheet (printed: continued on page 4/20).
# Where the first naming reader finds the target: patent_title: RHAMM binding peptides
# [4] = tested on: ascites-derived human EOC cells; assay: Cell viability (alamarBlue) of ascites-derived human EOC cells; assay type: cell-based; details: 7 and 0.7 uM, re-dosing everyday up to 6 days; p<0.05
# Protocol: The ability of one RHAMM-binding peptide (SEQ ID NO: 1) to limit the proliferation of patient derived epithelial ovarian cancer tumors and the ability of another RHAMM-binding peptide (SEQ ID NO: 3) to reduce the viability of ascites-derived human EOC cells were examined. In these assays, epithelial ovarian cancer cells (derived from ascites of patients) were plated in a 96-well plate at density 5,000 cells/well and allowed to grow for 24 hours at 37° C. and 5% CO2. Peptides (1 uM and 10 uM) were added to cells on day one and proliferation was measured for 6 days. 1/10th volume of Alamar Blue reagent was added directly to cells in culture medium everyday for six days. Fluorescence was read at 570/590 nm. Data were obtained from mean of two experiments. Cells treated with just DMSO (dimethylsulfoxide) and “no-cell” control samples were included in the experiment.
# Primary cells from patient sample EOC were seeded to a 24-well culture dish and 24 hours later treatment was initiated with the RHAMM-binding peptide SEQ ID NO: 3 (7 and 0.7 uM concentrations) or DMSO vehicle control. Re-dosing occurred everyday for up to 6 days and cell viability was assessed by fluorometry using alamarBlue™ reagent (measured in fluorescence units, FU).
affinity to RHAMM in SPR screening (RHAMM [2]),Compound,also measured
enhanced affinity to RHAMM,SEQ ID NO: 11: synthetic βIV-CTT tubulin peptide containing EEXEEZ motif (GEFEEEAEEEVA-NH2),–
failed the initial screening,SEQ ID NO: 10: synthesized tubulin-derived 12-residue peptide containing EEXEDZ motif (GEFEEEEGEDEA),–

# The remaining lines, values behind:
Compound,affinity to RHAMM in SPR screening (RHAMM [2]),also measured
CSCC[C@H](NC(=O)[C@H](CC(N)=O)NC(=O)[C@H](CO)NC(=O)[C@H](CCC(=O)O)NC(=O)[C@H](C)NC(=O)[C@H](CCC(=O)O)NC(=O)[C@@H](NC(=O)[C@@H](N)Cc1ccccc1)[C@@H](C)O)C(=O)N[C@@H](CC(N)=O)C(=O)N[C@@H](CC(=O)O)C(=O)N[C@@H](CC(C)C)C(=O)N[C@H](C(N)=O)C(C)C [SEQ ID NO: 14] (H-FTEAESNMNDLV-NH2),–,pKd (RHAMM [1]): 7.52
"C[C@H](NC(=O)[C@H](CO)NC(=O)[C@@H](N)CC(=O)O)C(=O)N[C@@H](CC(=O)O)C(=O)NCC(=O)N[C@@H](CCC(=O)O)C(=O)N[C@@H](CC(=O)O)C(=O)N[C@@H](CCC(=O)O)C(=O)NCC(=O)N[C@@H](CCC(=O)O)C(=O)N[C@@H](CCC(=O)O)C(=O)N[C@@H](Cc1ccc(O)cc1)C(N)=O [SEQ ID NO. 2 | 2, Alpha Ia CTT (438-449)] (H-DSADGEDEGEEY-NH2; N-terminus assumed)",–,pKd (RHAMM [3]): > 6.00
SEQ ID NO: 2: synthesized tubulin-derived 12-residue peptide containing DEXEEZ motif (DSADGEDEGEEY),failed the initial screening,–
"CC(C)[C@H](NC(=O)[C@@H](N)CO)C(=O)N[C@@H](CCC(=O)O)C(=O)N[C@@H](C)C(=O)N[C@@H](CCC(=O)O)C(=O)N[C@@H](C)C(=O)N[C@@H](CCC(=O)O)C(=O)N[C@@H](CCC(=O)O)C(=O)NCC(=O)N[C@@H](CCC(=O)O)C(=O)N[C@@H](CCC(=O)O)C(=O)N[C@@H](Cc1ccc(O)cc1)C(N)=O [SEQ ID NO. 3 | 3a, Alpha IIIc CTT (439-450)] (H-SVEAEAEEGEEY-NH2; N-terminus assumed)",–,pKd (RHAMM [3]): 6.48
SEQ ID NO: 12: synthesized tubulin-derived 12-residue peptide of FIG. 2B (EAFEDEEEEIDG),enhanced affinity to RHAMM,–
SEQ ID NO: 3: synthetic αIIIc tubulin CTT peptide containing EEXEEZ motif (SVEAEAEEGEEY),enhanced affinity to RHAMM,viability of EOC cells (fluorescence units) [4]: reduced viability
C[C@H](NC(=O)[C@H](CCC(=O)O)NC(=O)[C@H](CCC(=O)O)NC(=O)[C@H](CCC(=O)O)NC(=O)[C@H](C)NC(=O)[C@H](CCC(=O)O)NC(=O)[C@H](CCC(=O)O)NC(=O)CNC(=O)[C@H](Cc1ccccc1)NC(=O)[C@H](CC(=O)O)NC(=O)[C@H](CCC(=O)O)NC(=O)[C@@H](N)CCC(=O)O)C(N)=O [SEQ ID NO: 9] (H-EEDFGEEAEEEA-NH2),–,pKd (RHAMM [1]): 7.49
SEQ ID NO: 4: synthesized tubulin-derived 12-residue peptide containing DEXEEZ motif (IDSYEDEDEGEE),failed the initial screening,–
CC(C)[C@H](N)C(=O)N[C@@H](CCC(=O)O)C(=O)NCC(=O)N[C@@H](CCC(=O)O)C(=O)NCC(=O)N[C@@H](CCC(=O)O)C(=O)N[C@@H](CCC(=O)O)C(=O)N[C@@H](CCC(=O)O)C(=O)NCC(=O)N[C@@H](CCC(=O)O)C(=O)N[C@@H](CCC(=O)O)C(=O)N[C@@H](Cc1ccc(O)cc1)C(N)=O [SEQ ID NO: 1] (H-VEGEGEEEGEEY-NH2),–,pKd (RHAMM [1]): 7.62
